Test results taken from article PMC6882436 (Journal of Extracellular Vesicles, 2019).

Target: T1, eGFP-CD82 (KAI1/CD82) (Homo sapiens, UniProt P27701)
T1 sequence (P27701 1-267): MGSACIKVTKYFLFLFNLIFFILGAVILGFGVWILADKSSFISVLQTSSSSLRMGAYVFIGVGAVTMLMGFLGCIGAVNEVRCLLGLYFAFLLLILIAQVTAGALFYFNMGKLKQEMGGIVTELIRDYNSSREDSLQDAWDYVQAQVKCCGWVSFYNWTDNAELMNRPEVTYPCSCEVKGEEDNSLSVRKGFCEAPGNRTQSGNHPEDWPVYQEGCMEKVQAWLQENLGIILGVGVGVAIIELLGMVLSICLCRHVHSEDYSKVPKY
Test: microscale thermophoresis, eGFP fluorescence, cell lysate
Format: binding

CC(C)CCC[C@@H](C)[C@H]1CC[C@H]2[C@@H]3CC=C4C[C@@H](O)CC[C@]4(C)[C@H]3CC[C@]12C [cholesterol]
Kd: 5.89 µM
